# According to PubChem BioAssay AID1996:
# Settings: buffer; pH 7.4; 200.0 µM
row,Compound,solubility kinetic [µg/mL]
1,Cc1ccc(S(=O)(=O)C2(C(=O)NC3CCCCC3C)CC2)cc1 (stereo not drawn),37.3
2,CCOC(=O)Cn1cc(C(=O)C(C)(C)C)c2ccccc21,> 43.1
3,COc1ccc(NC(=O)CSc2nc3c(c(-c4cccs4)c2C#N)CN(C)CC3)cc1OC,19.9
4,N#Cc1nc(-c2ccccc2)oc1N1CCC(C(N)=O)CC1,39.7
5,Cc1nc(N)sc1-c1csc(Nc2cccc(C(=O)O)c2)n1,> 49.9
6,N#CCC(=O)Nc1ccc(C(=O)OCC(=O)NC(=O)Nc2ccc3c(c2)OCCO3)cc1,10.5
7,O=C(c1ccc(F)cc1)N(Cc1ccco1)C1CCS(=O)(=O)C1 (stereo not drawn),> 50.6
8,Cc1ccc(N2C(S)=C(C#N)C(=O)NC2c2ccco2)cc1 (stereo not drawn),> 46.7
9,Cc1ccc2[nH]c(O)c(N=O)c2c1,> 26.4
10,O=C(O)CC1(CC(=O)Nc2cc3ccccc3cn2)CCCCC1,40.7
11,COc1ccc(C)cc1NC(=O)C1CCN(C(=O)c2ccco2)CC1,> 51.4
12,Cc1cc(-c2cccs2)c(C#N)c(=S)[nH]1,28.3
13,O=C(NC1CCCCC1)c1cc2cc(Br)ccc2o1,< 0.7
14,COc1ccc(N2CCC(CNC(=O)Nc3cccc(OC)c3)C2)cc1 (stereo not drawn),34.5
15,O=C(CCn1c(=O)oc2ccccc21)NCCCN1CCOCC1,43.2
16,COc1ccc(NC(=O)C(Cc2cc(C)cc(C)c2)C(C)C(=O)O)cc1 (stereo not drawn),36.5
17,COc1cc(CN2CCCCCC2)cc([N+](=O)[O-])c1O,35.6
18,Cc1cccc(NC2SC(=O)NC2=O)c1 (stereo not drawn),> 33.3
19,O=C(NCCCc1nc2ccccc2[nH]1)c1ccco1,> 40.4
20,C/C(=N\Nc1nccnc1Cl)c1ccc(F)cc1,> 39.7
21,O=C(NC1CCCC1)c1cc2c(=O)n3ccccc3nc2s1,11.2
22,CCCCCn1c(N)c(C(=O)NCc2cccs2)c2nc3ccccc3nc21,0.9
23,O=C(c1ccc2[nH]c(=O)c(=O)[nH]c2c1)N1CCc2ccccc2C1,> 48.2
24,Cc1ccc2nc(Br)c3c(c2c1)OC(CBr)C3 (stereo not drawn),9.7

row,Compound,solubility kinetic [µg/mL]
1,COc1ccccc1NC(=O)Nc1ccc(CC#N)cc1,1.4
2,CC(C)S(=O)(=O)c1cnc(-c2ccccn2)nc1N,37.6
3,CCCCC(=O)Nc1cnc(NC(=O)c2cccs2)cc1C,> 47.6
4,CC1CC(C)CN(C(=O)/C=C/c2ccc([N+](=O)[O-])s2)C1 (stereo not drawn),5.8
5,CC(=O)Nc1ccc(S(=O)(=O)N2CCSc3ccccc32)cc1,49.6
6,O=C(O)/C=C/C(=O)Nc1ccc(Cc2ccc(NC(=O)/C=C/C(=O)O)cc2)cc1,58
7,CCCCc1c(C)nc2ccccc2c1SCCC(=O)O,> 45.5
8,O=C(NC(c1ccccc1)c1ccccc1)c1ccc(CO)cc1,44.2
9,O=C(NOCc1ccccc1)c1ccc(Cl)cc1Cl,36.4
10,Cc1ccc(C)c(OC(C)C(=O)Nc2nccs2)c1 (stereo not drawn),32.8
11,COc1ccc(NC(=O)C2CCOC(C)(C)C2)cc1 (stereo not drawn),> 39.5
12,O=C(NC1CCS(=O)(=O)C1)c1cccc(Br)c1 (stereo not drawn),> 47.7
13,CCOC(=O)N1CCN(c2nc(-c3ccccc3)c3ccccc3n2)CC1,< 0.2
14,O=C1NC(=O)N(Cc2ccc(F)cc2)C(=O)/C1=C\C=C\c1ccco1,10
15,Nc1cc(Cl)ccc1C(=O)OCC(=O)NCC1CCCO1 (stereo not drawn),> 46.9
16,COc1ccc(CCNC(=O)c2noc(C)c2[N+](=O)[O-])cc1OC,> 50.3
17,Cc1cc(C)c2ccc(Cl)cc2n1,1.5
18,CN1C(=O)CSC1=Nc1cccc(C(=O)O)c1,> 37.5
19,NNC(=O)c1ccc(COCC(F)(F)C(F)F)cc1,> 42
20,Cc1onc(-c2ccccc2)c1C(=O)N1CCCCCC1,> 42.7
21,O=C(c1cccc([N+](=O)[O-])c1)N1CCCC(C(=O)N2CCCCC2)C1 (stereo not drawn),> 51.8
22,Cc1ccc2oc(C(=O)NCc3ccccc3)cc(=O)c2c1,< 0.6
23,Cc1ccc(S(=O)(=O)NC2CCCCCC2)cc1,> 40.1
24,COc1cccc(-n2c(O)c(C=NCCN3CCNCC3)c(=O)[nH]c2=S)c1,> 58.4

row,Compound,solubility kinetic [µg/mL]
1,COc1ccc(S(=O)(=O)N2CCOCC2)cc1NC(=O)CSc1nnc(C2CC2)n1C,> 70.1
2,O=C(NC(=S)N1CCCCC1)c1csc([N+](=O)[O-])c1,> 44.9
3,Cc1nc(C)c(C(=O)Nc2cccc(F)c2)s1,> 37.5
4,COc1ccc(CC(=O)Nc2nccs2)cc1S(=O)(=O)N1CCOCC1,> 59.6
5,CN1CCN(C(=O)C2CCN(S(=O)(=O)c3ccc(F)cc3)CC2)CC1,38.5
6,Cc1ccc(OCC(=O)Nc2ccc3c(c2)CCC3)c([N+](=O)[O-])n1,2.1
7,Cc1ccc(NC(=O)Cc2c(O)c3ccccc3[nH]c2=O)c(C)c1,23
8,O=C(CCN1C(=O)C2CC=CCC2C1=O)OCC(=O)c1ccc(F)cc1 (stereo not drawn),> 53.9
9,Cl.Clc1cc(I)cc(Cl)c1NC1=NCCN1,> 58.9
10,Cc1nc(NC(=S)NC(=O)c2ccccc2)sc1C,0.3
11,CC(=O)N1CCOCCOCCN(C(C)=O)CCOCC1,> 45.4
12,O=C(Nc1cc(Cl)ncn1)c1ccccc1,34.2
13,Cc1cc(=O)oc(C)c1C(=O)Nc1cccc(F)c1,> 39.2
14,NS(=O)(=O)c1cccc(NC(=O)COC(=O)CC2Sc3ccccc3NC2=O)c1 (stereo not drawn),32.5
15,CCN(CC)c1ccc(NC(=O)c2ccc3c(c2)OCO3)c(C)c1,5.4
16,Cl.O=C(OCCN1CCOCC1)c1ccccc1Cl,> 45.9
17,CCNC(=O)N1CCCC(C(=O)c2ccc(OC)c(OC)c2)C1 (stereo not drawn),35
18,CSc1ccc(C2CC(=O)Nc3c2c(=O)n(C)c(=O)n3C)cc1 (stereo not drawn),> 49.7
19,O=C1[C@@H]2C(c3ccc(F)cc3)=NO[C@@H]2C(=O)N1Cc1ccccc1,7.8
20,COc1cc(C(=O)OCC(C)=O)cc(NC(=O)c2ccco2)c1OC,2.4
21,NS(=O)(=O)c1ccc(N=Cc2c(O)c3ccccc3oc2=O)cc1,19.9
22,CC12CC3(C)CC(C)(C1)CC(C(=O)NCc1ccccn1)(C2)C3,42.4
23,Cc1ccccc1OCCN1CCCC1,19.5
24,C=CCSC1=NN2CCS(=O)(=O)N=C2S1,> 39.5

row,Compound,solubility kinetic [µg/mL]
1,CCN(CC)C(=O)CSc1nnc(SC(C)C(=O)NC2CC2)s1 (stereo not drawn),> 56.2
2,O=C(NCCc1ccc(F)cc1)C1CCCO1 (stereo not drawn),27.6
3,Cc1ccccc1Nc1c(-c2cccnc2)nc2ccccn12,17.6
4,Cl.O=C(CCN1CCc2ccccc2C1)Nc1ccc(F)c(F)c1,37.9
5,COc1ccc(C2=NC(C)(C)Cc3cc(OC)c(OC)cc32)cc1,> 48.8
6,O=C(Nc1nccs1)c1cc([N+](=O)[O-])ccc1Cl,3.7
7,O=C(O)CN1C(=O)C(=O)N(Cc2ccccc2F)C1=O,> 42
8,COCC(=O)Nc1ccc(OC)c(Cl)c1,33.8
9,O=C1CC(NC(=O)C(F)(F)F)c2cc3c(cc21)OCO3 (stereo not drawn),42.3
10,Cc1ccc(N(CC(=O)NC2CC2)S(=O)(=O)c2ccccc2)c(C)c1,> 53.8
11,CCOc1ccc(NC(=O)c2ccc(CN3CCc4ccccc4C3)cc2)cc1,< 0.4
12,O=C(NC1CC2CCCC(C1)N2Cc1ccccc1)c1cccc(F)c1 (stereo not drawn),45.1
13,Cc1ccc(Cl)cc1NC(=O)COC(=O)c1ccccc1O,< 0.7
14,CCCc1cc(=O)[nH]c(SCC(=O)c2cc(C)n(CC3CCCO3)c2C)n1 (stereo not drawn),> 58.4
15,CCOc1cc(N2CCOCC2)c(OCC)cc1NC(=O)C(C)(C)C,> 52.6
16,CN(C)/C=C1\Oc2ccc3ccccc3c2C1=O,< 0.5
17,COc1ccc(CNC(=O)N[C@H](C(=O)O)C(C)C)cc1OC,> 46.6
18,Cc1cnc(NC(=O)C2CCC(C(C)(C)C)CC2)s1 (stereo not drawn),< 0.3
19,CCC(=O)N1CCc2cc(S(=O)(=O)Nc3ccccc3C)ccc21,< 0.4
20,Cc1cccc(NC(=O)Nc2ccc(S(N)(=O)=O)cc2)c1,22.1
21,Cc1ccc2c(C)c(C(=O)N(C)Cc3ccncn3)oc2c1C,32.7
22,CN(C)/C=C/C(=O)c1ccc(-n2cccc2)cc1,> 36
23,CCOC(=O)c1c(C)nc2cc(C)cc(C)n12,32.4
24,CCCn1c(N)cc(=O)n(CCC)c1=O,> 31.7

row,Compound,solubility kinetic [µg/mL]
1,O=C(NC1CCCCCC1)C(=S)NCc1ccccc1,1.6
2,C[C@H](NCc1c[nH]c2ccccc12)c1ccccc1,> 37.6
3,CCC(C)C(=O)Nc1ccc(S(=O)(=O)N2CCCC2)cc1 (stereo not drawn),42.3
4,COc1ccc(CCNc2nc(C)cc(C)n2)cc1OC.Cl,> 48.6
5,Br.Fc1cc(Cl)ccc1NC1=NCCCCC1,> 48.2
6,Cc1cc(N2CCN(C(=O)Nc3ccc(F)cc3F)CC2)c2ccccc2n1,> 57.4
7,Cc1cccc(C)c1NC(=S)N1CCCCCC1,> 39.4
8,CCCC/C(O)=C1\C(=O)CC(C)(C)CC1=Nc1ccc(N)cc1,> 47.2
9,O=C(c1ccc(S(=O)(=O)Nc2ccccc2F)cc1)N1CCN(c2ccccn2)CC1,> 66.1
10,CC(NCc1ccccc1C(F)(F)F)C(O)c1ccccc1.Cl (stereo not drawn),> 51.9
11,COc1ccc(C2CC(=O)C(C=NCCCO)=C(O)C2)cc1 (stereo not drawn),> 45.5
12,CCOC(=O)Cc1csc(NC(=O)COC(=O)/C=C/c2ccc(OC)cc2)n1,4.5
13,COc1ccc(N2C(=O)CC(SCc3ccc(Cl)cc3)C2=O)cc1 (stereo not drawn),0.9
14,CCOC(=O)C1=C[C@]2(CC)CCCN3CCc4c(n1c1ccccc41)[C@@H]32,35.5
15,O=C(NC1CCS(=O)(=O)C1)c1sc2ccccc2c1Cl (stereo not drawn),12.2
16,NC(=O)c1ccc(N2CCC(C(N)=O)CC2)c([N+](=O)[O-])c1,38.4
17,CCOc1nc2ccccc2nc1NS(=O)(=O)c1ccc(Cl)cc1,> 54.6
18,O=C(NCc1cccs1)C1CC1,26.5
19,O=C(COC(=O)c1ccc2c(c1)OCO2)Nc1ccccc1F,6.3
20,O=[N+]([O-])c1cccc(-c2nc3ccc([N+](=O)[O-])cc3[nH]2)c1,1.2
21,Cn1c(N)c(C(=O)COC(=O)CCC2CCCC2)c(=O)n(C)c1=O,> 50.6
22,COC(=O)c1nn(-c2cccc(Cl)c2)cc(OC)c1=O,> 44.2
